The experiment has as its target T1, NAD-dependent protein deacetylase sirtuin-2 (Homo sapiens, UniProt Q8IXJ6).
T1 sequence (Q8IXJ6 whole entry): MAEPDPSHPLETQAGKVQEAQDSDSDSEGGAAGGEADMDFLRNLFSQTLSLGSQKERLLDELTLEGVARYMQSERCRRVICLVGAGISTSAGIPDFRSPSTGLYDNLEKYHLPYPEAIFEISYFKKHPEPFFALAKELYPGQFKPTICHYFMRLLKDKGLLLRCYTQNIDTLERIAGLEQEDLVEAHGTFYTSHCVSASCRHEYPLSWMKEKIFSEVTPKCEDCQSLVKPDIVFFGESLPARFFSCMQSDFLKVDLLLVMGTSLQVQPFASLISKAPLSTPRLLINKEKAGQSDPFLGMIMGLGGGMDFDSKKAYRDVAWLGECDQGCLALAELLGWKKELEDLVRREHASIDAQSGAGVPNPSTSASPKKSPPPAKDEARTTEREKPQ
Put plainly: Inhibition of human recombinant GST-tagged SIRT2 by histone deacetylase assay.

One may read the IC50 as the midpoint of a concentration-inhibition curve. As for `O=C(O)/C=C/C(=O)Nc1cccc(NC(=O)c2ccccc2O)c1`, the half-maximal inhibitory concentration (IC50) is above 1000 µM.

`COc1cc(NC(=O)c2ccccc2)c(C)cc1NC(=O)CC(CC(=O)O)c1ccccc1` (stereo not given): the IC50 is above 1000 µM. As to `Cc1ncc(CSc2ccccc2/N=C/c2cc(Cl)cc(Cl)c2O)c(CO)c1O`, the IC50 stood at 74.3 µM.

Take `Oc1ccc(CCc2nnc(S)n2-c2ccc(Cl)cc2)cc1`: the IC50 is above 300 µM. With `O=C1c2ccccc2C(=O)c2c(NCCc3ccc(O)cc3)ccc(NCCc3ccc(O)cc3)c21` the figure was 56.7 µM; with `CN(CCO)c1ccc(C(=O)c2ccc(N(C)CCO)cc2)cc1`, above 1000 µM; with `Oc1ccccc1/C=N/c1ccc(OCCCCOc2ccc(/N=C/c3ccccc3O)cc2)cc1`, above 1000 µM.

As for `O=C(O)CCCCOc1ccc2oc3ccccc3c(=O)c2c1`, the 50% inhibitory concentration (IC50) is above 1000 µM.

Regarding `O=C(O)CSCC(=O)N1CCN(c2cc(C(F)(F)F)nc3ccccc23)CC1`, the 50% inhibitory concentration (IC50) is above 1000 µM. With `Oc1ccc(/C=N/c2ccc(Cc3ccc(/N=C/c4ccc(O)c(O)c4)cc3)cc2)cc1O` the figure was above 1000 µM; with `O=C(Nc1ccc(COc2ccccc2)cc1)Nc1cccc(C(=O)O)c1`, above 300 µM; with `Oc1ccccc1/C=N/c1ccc(OCCCOc2ccc(/N=C/c3ccccc3O)cc2)cc1`, above 1000 µM. Consider `O=C1c2cccc3c(SCCO)ccc(c23)C(=O)N1CCc1ccccn1`, for which the IC50 is above 1000 µM. The result for `O=c1cc(CSc2n[nH]c(=O)n2C2Cc3ccccc3C2)c2ccc(O)cc2o1` reads above 300 µM; that for `CC(C)(C)OC(=O)NC(Cc1ccccc1)C(=O)OCc1ccc(CC(=O)O)cc1` (stereo not given), above 1000 µM.
